From patent US20240166669A1, “QUINAZOLINE AMINE DERIVATIVES AS KRAS INHIBITORS” (Nikang Therapeutics, Inc., priority 2021, published 2024) come the findings set out here.

The term EC50 denotes the concentration needed to bring the measured effect to its halfway point.

Bounds are passed on as bounds.

Experiment [1] concerns the target T1, K-Ras G12D (Homo sapiens, UniProt P01116, G12D).
T1 construct: AGS (Cobioer, CBP60476) cell lines which harbor KRAS G12D mutation; host or cells: AGS
The experiment is described as follows: p-ERK Cellular 1-Plate Assay (Biological Example 3). The format is cell-based. Particulars: AGS cells (KRAS G12D), 3 h treatment, AlphaLISA p-ERK1/2, 1-plate; Biological Example 3 (values marked *); read-out: AGS PERK EC50. The procedure: (§1) The ability of the compound of Formula (IIA′), (II′), or (II) or a pharmaceutically acceptable salt thereof (test compound) to inhibit K-Ras G12D activity was tested using AGS (Cobioer, CBP60476) cell lines which harbor KRAS G12D mutation as described below.
AGS (Cobioer, CBP60476) were seeded in 384-well plates and cultured overnight (5,000 cells per well, 40 μl total volume). The following morning, cells were treated with test compound, with starting concentration at 10 μM and 3-fold dilution down to 0.5 nM for 3 h at […]. DMSO treatment served as control. pERK was then measured using AlphaLISA SureFire Ultra p-ERK/2 (Thr202/Tyr204) Assay Kit (Perkin Elmer, cat #ALSU-PERK) following the manufacturer's instruction as follows.
Briefly, the culture medium was removed and 10 μl 1× lysis buffer was added to each well, followed by 10 minutes incubation on a plate shaker at room temperature. Acceptor mixture was prepared according to manufacturer's instruction. 5 μl acceptor mixture was added to the cell lysate and the plate was wrapped with foil, spun at 500 rpm for 10s and incubated at RT for 60 min. Donor mixture was prepared under subdued light. 5 μl donor mixture was added to the cell lysate and the plate was spun at 500 rpm for 10s and incubated at RT for another 60 min. in the dark.
For orientation: In Alpha technology, singlet oxygen from a donor bead excites a nearby acceptor bead.

Experiment [2] has as its target T1, K-Ras G12D. The experiment is described as follows: p-ERK Cellular 2-Plate Assay (Biological Example 2). The experiment is classed as cell-based. Particulars: AGS cells (KRAS G12D), 3 h treatment, AlphaLISA p-ERK1/2, 2-plate; Biological Example 2 (unmarked values); read-out: AGS PERK EC50. The procedure:
as §1
AGS (Cobioer, CBP60476) were seeded in 384-well plates and cultured overnight (10.000 cells per well 40 μl total volume). The following morning, cells were treated with test compound, with staring concentration at 10 μM and 3-fold dilution down to 0.5 nM for 3 h at 37° C., DMSO treatment served as control. p-ERK was then measured using AlphaLISA SureFire Ultra p-ERK1/2 (Thr202/Tyr204) Assay Kit (Perkin Elmer, cat #ALSU-PERK) following the manufacturer's instruction as follows.
Briefly, the culture medium was removed and 20 μl 1× lysis buffer was added to each well, followed by 30 minutes incubation on a plate shaker at room temperature. Then 10 μl of lysate was transferred to a white 384-well plate. Acceptor mixture was prepared according to manufacturer's instruction. 5 μl acceptor mixture was added to the cell lysate and the plate was wrapped with foil, spun at 500 rpm for 10 s, and incubated at RT for 60 min. Donor mixture was prepared under subdued light. 5 μl donor mixture was added to the cell lysate and the plate was spun at 500 rpm for 10s and incubated at RT for another 60 min. in the dark. Signal was then measured on a EnVision 2105 multimode plate reader. Percentage inhibition was calculated with DMSO treatment as 100% of signal, and IC50 was calculated by XLfit 5.5.x.

T1 sequence (P01116 1-188 isoform P01116-2 G12D): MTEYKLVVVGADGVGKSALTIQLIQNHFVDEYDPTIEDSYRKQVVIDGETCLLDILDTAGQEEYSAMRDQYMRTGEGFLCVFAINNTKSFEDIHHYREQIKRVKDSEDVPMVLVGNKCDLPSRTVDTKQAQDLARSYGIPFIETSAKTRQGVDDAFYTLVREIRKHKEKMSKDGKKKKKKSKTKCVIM

For the compound `C#Cc1c(F)ccc2cc(O)cc(-c3ncc4c(N5C[C@H]6CC[C@@H](C5)N6)nc(OCC56CCCCN5CC(=C)C6)nc4c3F)c12` (stereo partly drawn) [Example 43, 4-(4-((1R,5S)-3,8-diazabicyclo[3.2.1]octan-3-yl)-8-fluoro-2-((2-methylenehexahydroindolizin-8a(1H)-yl)methoxy)pyrido[4,3-d]pyrimidin-7-yl)-5-ethynyl-6-fluoronaphthalen-2-ol], the 50% effective concentration (EC50) in experiment [1] was determined as 18 nM. On the same count and under the same terms, as for `C#Cc1c(F)ccc2cc(O)cc(-c3ncc4c(N5C[C@H]6CC[C@@H](C5)N6)nc(OCC56CCCCCN5CC(=C)C6)nc4c3F)c12` (stereo partly drawn) [Example 44, 4-(4-((1R,5S)-3,8-diazabicyclo[3.2.1]octan-3-yl)-8-fluoro-2-((2-methylenehexahydro-1H-pyrrolo[1,2-a]azepin-9a(5H)-yl)methoxy)pyrido[4,3-d]pyrimidin-7-yl)-5-ethynyl-6-fluoronaphthalen-2-ol], the figure is over 100 nM; as for `C#Cc1c(F)ccc2cc(O)cc(-c3ncc4c(N5C[C@H]6CC[C@@H](C5)N6)nc(OC[C@@H]5CC(=C)CN5C)nc4c3F)c12` [Example 46, 4-(4-((1R,5S)-3,8-diazabicyclo[3.2.1]octan-3-yl)-8-fluoro-2-(((S)-1-methyl-4-methylenepyrrolidin-2-yl)methoxy)pyrido[4,3-d]pyrimidin-7-yl)-5-ethynyl-6-fluoronaphthalen-2-ol], 5.3 nM. On the same count and under the same terms, as for `C#Cc1c(F)ccc2cccc(-c3ncc4c(N5C[C@H]6CC[C@@H](C5)N6)nc(OCC56CC(=C)CN5CC(=C)C6)nc4c3F)c12` [Example 47, 4-((1R,5S)-3,8-diazabicyclo[3.2.1]octan-3-yl)-2-((2,6-dimethylenetetrahydro-1H-pyrrolizin-7a(5H)-yl)methoxy)-7-(8-ethynyl-7-fluoronaphthalen-1-yl)-8-fluoropyrido[4,3-d]pyrimidine], the figure is 52 nM; as for `C#Cc1c(F)ccc2cccc(-c3ncc4c(N5C[C@H]6CC[C@@H](C5)N6)nc(OCC56CCCN5CC(=C)CC6)nc4c3F)c12` (stereo partly drawn) [Example 50, 4-((1R,5S)-3,8-diazabicyclo[3.2.1]octan-3-yl)-7-(8-ethynyl-7-fluoronaphthalen-1-yl)-8-fluoro-2-((6-methylenehexahydroindolizin-8a(1H)-yl)methoxy)-pyrido[4,3-d]pyrimidine], 213 nM. Turning to `C#Cc1c(F)ccc2cccc(-c3ncc4c(N5C[C@H]6CC[C@@H](C5)N6)nc(OCC56CCCCN5CC(=C)C6)nc4c3F)c12` (stereo partly drawn) [Example 51, 4-((1R,5S)-3,8-diazabicyclo[3.2.1]octan-3-yl)-7-(8-ethynyl-7-fluoronaphthalen-1-yl)-8-fluoro-2-((2-methylenehexahydroindolizin-8a(1H)-yl)methoxy)pyrido[4,3-d]pyrimidine], in experiment [1], the EC50 was determined as 836 nM. Regarding `C#Cc1c(F)ccc2cccc(-c3ncc4c(N5C[C@H]6CC[C@@H](C5)N6)nc(OCC56CCCCCN5CC(=C)C6)nc4c3F)c12` (stereo partly drawn) [Example 52, 4-((1R,5S)-3,8-diazabicyclo[3.2.1]octan-3-yl)-7-(8-ethynyl-7-fluoronaphthalen-1-yl)-8-fluoro-2-((2-methylenehexahydro-1H-pyrrolo[1,2-a]azepin-9a(5H)-yl)methoxy)pyrido[4,3-d]pyrimidine], the concentration for a half-maximal effect (EC50) in experiment [1] is over 100 nM. Turning to `C#Cc1cccc2cc(O)cc(-c3ncc4c(N5CC6CC7(CC7)C(C5)N6)nc(OCC56CCCN5CCC6)nc4c3F)c12` (centres unmarked) [Example 53, 5-ethynyl-4-(8-fluoro-4-(3,8-diazaspiro[bicyclo[3.2.1]octane-6,1′-cyclopropan]-3-yl)-2-((tetrahydro-1H-pyrrolizin-7a(5H)-yl)methoxy)pyrido[4,3-d]pyrimidin-7-yl)naphthalen-2-ol], the EC50 in experiment [2] was found to be 266 nM. For the compound `C#Cc1c(F)ccc2cc(O)cc(-c3ncc4c(N5C[C@H]6CC[C@H](N6)C5C)nc(OCC56CCCN5CC(=C)C6)nc4c3F)c12` (stereo partly drawn) [Example 54, 5-ethynyl-6-fluoro-4-(8-fluoro-4-((1S,5R)-2-methyl-3,8-diazabicyclo[3.2.1]octan-3-yl)-2-((2-methylene-tetrahydro-1H-pyrrolizin-7a(5H)-yl)methoxy)-pyrido[4,3-d]pyrimidin-7-yl)naphthalen-2-ol], the EC50 in experiment [1] was 1.4 nM. With `C#Cc1c(F)ccc2cccc(-c3c(Cl)cc4c(N5C[C@H]6CC[C@@H](C5)N6)nc(OCC56CCCN5CC(=C)C6)nc4c3F)c12` (stereo partly drawn) [Example 55, 4-((1R,5S)-3,8-diazabicyclo[3.2.1]octan-3-yl)-6-chloro-7-(8-ethynyl-7-fluoronaphthalen-1-yl)-8-fluoro-2-((2-methylenetetrahydro-1H-pyrrolizin-7a(5H)-yl)methoxy)quinazoline], in experiment [2], the EC50 is over 100 nM. Same read-out and setting: as for `C#Cc1cccc2cc(O)cc(-c3c(Cl)cc4c(N5C[C@H]6CC[C@@H](C5)N6)nc(OCC56CCCN5CC(=C)C6)nc4c3F)c12` (stereo partly drawn) [Example 56, 4-(4-((1R,5S)-3,8-diazabicyclo[3.2.1]octan-3-yl)-6-chloro-8-fluoro-2-((2-methylenetetrahydro-1H-pyrrolizin-7a(5H)-yl)methoxy)quinazolin-7-yl)-5-ethynylnaphthalen-2-ol], the figure is 1.3 nM.
